Patent publication US4387106A, “Method of treating atherosclerosis with di(aralkyl)ureas and di(aralkyl)thioureas” (American Cyanamid Company, priority 1982, dated 1983)

Key:
[1] = molecular target: T1, fatty acyl CoA:cholesterol acyl transferase (ACAT) (Rattus norvegicus, UniProt O70536); test: In vitro inhibition of fatty acyl CoA:cholesterol acyl transferase (ACAT), rat adrenal supernatant; type: biochemical; conditions: final concentration 5.2 μg./ml., pH 7.4, 37° C., oleoyl CoA (14C)
T1 construct: The supernatant, containing the microsomal fraction, served as the source of the cholesterol-esterifying enzyme; from tissue; host or cells: rat adrenals, homogenate, 1000 x g supernatant containing the microsomal fraction
T1 sequence (O70536 1-545): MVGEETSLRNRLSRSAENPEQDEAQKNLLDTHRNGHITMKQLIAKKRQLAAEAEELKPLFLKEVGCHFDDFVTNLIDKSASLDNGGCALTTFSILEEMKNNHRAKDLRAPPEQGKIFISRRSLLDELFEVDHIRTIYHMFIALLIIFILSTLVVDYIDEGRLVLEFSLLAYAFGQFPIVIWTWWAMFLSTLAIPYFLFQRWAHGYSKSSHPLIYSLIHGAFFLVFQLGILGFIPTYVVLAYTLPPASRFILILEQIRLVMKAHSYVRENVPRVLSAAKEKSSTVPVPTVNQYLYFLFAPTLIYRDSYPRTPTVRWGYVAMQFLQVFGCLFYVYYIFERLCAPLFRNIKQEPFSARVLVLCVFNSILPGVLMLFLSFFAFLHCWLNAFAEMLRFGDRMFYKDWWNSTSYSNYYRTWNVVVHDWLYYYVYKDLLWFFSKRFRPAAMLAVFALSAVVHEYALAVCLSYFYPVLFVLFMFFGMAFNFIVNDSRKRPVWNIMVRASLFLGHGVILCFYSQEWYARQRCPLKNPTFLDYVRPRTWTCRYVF
Description: The compounds were tested for their ability to inhibit ACAT according to the following procedure:
Rat adrenals were homogenized in 0.2 M monobasic potassium phosphate buffer, pH 7.4, and centrifuged at 1000 times gravity for 15 minutes at 5° C. The supernatant, containing the microsomal fraction, served as the source of the cholesterol-esterifying enzyme, fatty acyl CoA:cholesterol acyl transferase (ACAT). A mixture comprising 50 parts of adrenal supernatant, 10 parts of albumin (BSA) (50 mg./ml.), 3 parts of test compound (final concentration 5.2 μg./ml.) and 500 parts of buffer was preincubated at 37° C. for 10 minutes. After treatment with 20 parts of oleoyl CoA (^14 C--0.4 μCi) the mixture was incubated at 37° C. for 10 minutes. A control mixture, omitting the test compound, was prepared and treated in the same manner. The lipids from the incubation mixture were extracted into an organic solvent and separated by thin-layer chromatography. The cholesteryl ester fraction was counted in a scintillation counter.

Cholesterol absorption [2] = conditions: po, 0.03 % of diet, 336 h
Description: Compounds were tested in vitro for their ability to inhibit the enzyme fatty acyl CoA:cholesterol acyl transferase (ACAT) and in vivo for serum hypolipidemic activity as measured by their ability to inhibit lipid absorption in rats.
Inhibition of Cholesterol absorption was determined by feeding male Sprague-Dawley rats, weighing 150-170 g., A 1% cholesterol:0.5% cholic acid diet for 2 weeks. The diet also contained compounds being tested at a dose of 0.03% of the diet. Control rats were fed the same diet without any compound. At the end of the test, the rats were sacrificed by decapitation. Blood is collected, centrifuged at 1.5 kg times gravity for 10 minutes at 4° C., and the serum is then analyzed for cholesterol and triglycerides enzymatically by the method of Trinder, P., Analyst, 77, 321 (1952) on a Centrifichem 400 Analyzer. Livers are removed, a 0.4 g sample is taken from the center of the large lobe, and the sample is subjected to saponification using 25% saturated potassium hydroxide in ethanol. The resulting neutral sterols are extracted with petroleum ether and extract analyzed for cholesterol. The effectiveness of the compound in inhibiting cholesterol absorption is measured by the lowering of either serum cholesterol or liver cholesterol relative the values for control rats.

Cholesterol absorption [3] = conditions: po, 336 h
Description: Inhibition of cholesterol absorption was determined by feeding male Sprague-dawley rats weighing 150-170 g. a 1% cholesterol:0.5% cholic acid diet for 2 weeks. The diet also contained compounds being tested at doses of between 0.01% and 0.1% of the diet. […] Feces were collected for each 24 hour period for the remaining 5 days during which the rats were maintained on the 1% cholesterol:0.5% cholic acid plus test compound diet. Fecal ^14 C-neutral sterols were extracted with petroleum ether from saponified feces by the method of Grundy, S. M. et. al., J. Lipid Res., 6, 397 (1965) and counted in a scintillation counter. Acidic sterols (bile acids) were extracted by acidifying the saponified feces and extracting in chloroform:methanol (2:1) and counting the chloroform phase in a scintillation counter. Total extraction of radioactivity (98-100%) from saponified feces is realized by this procedure.
The effect of test compounds on cholesterol absorption was determined by:
1. increase in excreted ^14 C-neutral sterol
2. decrease in excreted ^14 C-acidic sterol
3. decrease in ^14 C-cholesterol or ^14 C-cholesteryl ester in the liver.
4. decrease in ^14 C-cholesterol or ^14 C-cholesteryl ester in the serum.

Row | inhibition at 5.2 µg/mL [1] [%] | SMILES | Result (inhibition of cholesterol absorption: lowering of serum or liver cholesterol relative to control) (Cholesterol absorption [2]) | Result (inhibition of cholesterol absorption, 14C-sterol excretion) (Cholesterol absorption [3])
1 | 71.8 | Cc1ccc(NC(=O)N(Cc2ccccc2)Cc2ccccc2)cc1C [1,1-Dibenzyl-3-(3,4-dimethylphenyl)urea] | Active | Active
2 | 91.9 | O=C(Nc1cccc(Br)c1)N(Cc1ccccc1)Cc1ccccc1 [1,1-Dibenzyl-3-(3-bromophenyl)urea] | Active | –
3 | 94 | Cc1ccc(NC(=O)N(Cc2ccccc2)Cc2ccccc2)cc1Cl [1,1-Dibenzyl-3-(3-chloro-4-methylphenyl)urea] | Active | Active
4 | 94.9 | CCOC(=O)c1ccc(NC(=O)N(Cc2ccccc2)Cc2ccccc2)cc1 [1,1-Dibenzyl-3-(4-carboethoxyphenyl)urea] | Active | –
5 | 91.3 | CCCCc1ccc(NC(=O)N(Cc2ccccc2)Cc2ccccc2)cc1 [1,1-Dibenzyl-3-(4-n-butylphenyl)urea] | Active | –

More lines, now with the values behind:

Row | SMILES | inhibition at 5.2 µg/mL [1] [%] | Result (inhibition of cholesterol absorption: lowering of serum or liver cholesterol relative to control) (Cholesterol absorption [2]) | Result (inhibition of cholesterol absorption, 14C-sterol excretion) (Cholesterol absorption [3])
6 | Cc1cccc(NC(=O)N(Cc2ccccc2)Cc2ccccc2)c1C [1,1-Dibenzyl-3-(2,3-dimethylphenyl)urea] | 88.1 | Active | Active
7 | Cc1cc(C)c(NC(=O)N(Cc2ccccc2)Cc2ccccc2)c(C)c1 [1,1-Dibenzyl-3-(2,4,6-trimethylphenyl)urea] | 36.9 | Active | Active
8 | Cc1ccc(NC(=O)N(Cc2ccccc2)Cc2ccccc2)c(C)c1 [1,1-Dibenzyl-3-(2,4-dimethylphenyl)urea] | 89.9 | Active | Active
9 | COc1ccc(C)cc1NC(=O)N(Cc1ccccc1)Cc1ccccc1 [1,1-Dibenzyl-3-(2-methoxy-5-methylphenyl)urea] | 87.8 | Active | Active
10 | O=C(Nc1ccccc1C(F)(F)F)N(Cc1ccccc1)Cc1ccccc1 [1,1-Dibenzyl-3-(2-trifluoromethylphenyl)urea] | 68.4 | Active | –
11 | Cc1ccc(NC(=S)N(Cc2ccccc2)Cc2ccccc2)cc1Cl [1,1-Dibenzyl-3-(3-chloro-4-methylphenyl)thiourea] | 94.1 | Active | –
12 | Cc1cccc(NC(=S)N(Cc2ccccc2)Cc2ccccc2)c1 [1,1-Dibenzyl-3-(3-methylphenyl)thiourea] | 71.2 | Active | –
13 | Cc1cc(Cl)ccc1NC(=O)N(Cc1ccccc1)Cc1ccccc1 [1,1-Dibenzyl-3-(4-chloro-2-methylphenyl)urea] | 62.7 | Active | Active
14 | O=C(Nc1ccc(Cl)cc1C(F)(F)F)N(Cc1ccccc1)Cc1ccccc1 [1,1-Dibenzyl-3-(4-chloro-2-trifluoromethylphenyl)urea] | 81.8 | Active | Active
15 | O=C(Nc1ccc(Oc2ccccc2)cc1)N(Cc1ccccc1)Cc1ccccc1 [1,1-Dibenzyl-3-(4-phenoxyphenyl)urea] | 94.3 | Active | –
16 | Cc1ccc(Cl)cc1NC(=O)N(Cc1ccccc1)Cc1ccccc1 [1,1-Dibenzyl-3-(5-chloro-2-methylphenyl)urea] | 71.3 | Active | Active
